Literature values as cited in patent publication US10610707B2, “Oral care product for sensitive enamel care” (Colgate-Palmolive Company, priority 2010, dated 2020).

Settings: pH below which the compound dissolves, consuming acid

Row | Compound | pH
1 | [O]=[Zn] [ZnO, Zinc oxide] | approximately 6.95
2 | O=C([O-])[O-].[Ca+2] [calcium carbonate] | approximately 8.75
